Data taken from PMC6150229, “Simultaneous Determination of Twenty-Five Compounds in Rat Plasma Using Ultra-High Performance Liquid Chromatography-Polarity Switching Tandem Mass Spectrometry and Its Application to a Pharmacokinetic Study” (Molecules : A Journal of Synthetic Chemistry and Natural …, 2017).
Where two headings read alike, the source gives them in different places.

Legend:
[1] = male, Sprague-Dawley, rat, in vivo, po, 8 g/kg
Procedure: (§1) Twelve male Spargue-Dawley rats (200 ± 20 g) were supplied by Vital River Laboratory Animal Technology Co. Ltd. (Beijing, China). […] The rats were acclimated under a humidity (50%) controlled room at 22–25 °C with a 12 h light-dark cycle, and standard diet and water were provided ad libitum for one week.
(§2) Afterwards, all rats were randomly divided into two groups, namely sham and model groups. The myocardial ischemia model was simulated by left anterior descending (LAD) coronary artery ligation [12], whilst the rats belonging to the sham group received the similar surgery, however no actual ligation in LAD. All animals were fasted overnight with free access to water prior to oral dosing. Aliquots (250 μL) of blood were sampled at 0 (pre-dose), 0.08, 0.25, 0.5, 0.75, 1, 1.5, 2, 4, 6, 8, 12, and 24 h from venous around eye socket into heparinized tubes after a single oral dosing of 8.0 g/kg of QSKL and the collected blood samples were immediately subjected for 4000 rpm centrifugation for 10 min at 4 °C to harvest the plasma samples. Each 100 μL aliquot of plasma sample was transferred into another Eppendorf tube and stored at −80 °C till use.
(§3) When analysis, 300 μL of internal standards (200 ng/mL for either internal standard) fortified ACN, corresponding to three volumes of plasma, was spiked into each thawed plasma sample and mixed thoroughly. Then, the resulting samples were processed as those calibration samples.
(§4) Individual animal plasma concentrations versus time dataset were subjected to a non-compartmental pharmacokinetic analysis using WinNonlin software (ver. 6.4, Pharsight Corp., Sunnyvale, CA, USA). The pharmacokinetic parameters of each analyte including the maximum plasma concentration (Cmax), the time at which Cmax was achieved (Tmax), the terminal elimination half-life (t1/2), and the area under the plasma concentration versus time curve (AUC0→t along with AUC0→∞) were calculated. Moreover, Lz corresponding to the ratio of the dosage and AUC0→∞, as well as mean residence time (MRT) that was defined as the ratio of the area under the first moment curve from time 0 to infinity (AUMC0→∞/AUC0→∞) was also calculated. All results are expressed as mean ± SD. Comparisons regarding the pharmacokinetic parameters were carried out between sham and model groups using Student’s t-test, and p values less than 0.05 were considered to be significant.

[2] = in vivo; conditions: male, Sprague-Dawley, rat, po, 8 g/kg; for AUC(0-t): AUC0–t; for AUC(0-inf): AUC0–∞
Procedure: as §1, §2, §3, §4

[3] = Pharmacokinetic study in sham and myocardial ischemia model rats after a single oral dose of QSKL (UHPLC-psMS/MS of plasma, non-compartmental analysis); conditions: QSKL-treated plasma samples, sham and model rats, single oral dose 8.0 g/kg
Procedure: as §1, §2, §3, §4

[4] = model group (MG, myocardial ischemia) rats, oral administration of QSKL, plasma, mean ± SD, n = 6
[5] = sham group (SG) rats, oral administration of QSKL, plasma, mean ± SD, n = 6
[6] = t1/2, model group (MG, myocardial ischemia) rats, oral administration of QSKL, plasma, mean ± SD, n = 6
[7] = t1/2, sham group (SG) rats, oral administration of QSKL, plasma, mean ± SD, n = 6

AUC0–t [1]	AUC(0-t) [2]	AUC(0-inf) [2]	MRT [2]	Tmax [2]	half-life ([2]; t1/2)	MRT [1]	SMILES	Cmax [2]	AUC0–∞ [1]	also measured
4.54 ± 1.58 ng·h/mL	3.62 ± 0.763 ng·h/mL	5.58 ± 2.56 ng·h/mL	18.2 ± 2.76 h	8 h	10.7 ± 1.2 h		Cc1coc2c1C(=O)C(=O)c1c-2ccc2c(C)cccc12 [tanshinone I]	0.297 ± 0.115 ng/mL		
0.493 ± 0.147 ng·h/mL	0.406 ± 0.055 ng·h/mL	1.06 ± 0.47 ng·h/mL	50.5 ± 26.9 h	0.5 ± 0.33 h	36.5 ± 16.8 h	29.4 ± 17.5 h	O=c1cc(-c2ccc(O)c(O)c2)oc2cc(O[C@@H]3O[C@H](CO)[C@@H](O)[C@H](O)[C@H]3O)cc(O)c12 [luteoloside]		0.869 ± 0.272 ng·h/mL	
7.66 ± 2.60 ng·h/mL	6.01 ± 1.52 ng·h/mL	7.37 ± 2.08 ng·h/mL	10.3 ± 2.3 h	0.29 ± 0.17 h	5.76 ± 0.36 h	10.2 ± 5.77 h	O=C1C[C@@H](c2ccc(O[C@@H]3O[C@H](CO)[C@@H](O)[C@H](O)[C@H]3O)cc2)Oc2cc(O)ccc21 [liquiritin]		9.14 ± 4.02 ng·h/mL	
							COCC12CCC(OC)C34C5CC6(O)C(OC)C(O)C(O)(C5C6OC(=O)c5ccccc5)C(C(OC)C13)C4N(C)C2 (centres unmarked) [benzoylhypaconine]			distribution in rat plasma (quantifiable or not) [3]: quantifiable in most samples; AUC(0-t) [2, 4]: 0.926 ± 0.279 ng·h/mL; AUC(0-t) [2, 5]: 0.985 ± 0.167 ng·h/mL; AUC(0-inf) [2, 4]: 1.66 ± 0.331 ng·h/mL; AUC(0-inf) [2, 5]: 1.78 ± 0.905 ng·h/mL; Cmax [2, 4]: 0.466 ± 0.302 ng/mL; Cmax [2, 5]: 0.284 ± 0.209 ng/mL; MRT [2, 4]: 23.6 ± 7.39 h; MRT [2, 5]: 22.7 ± 14.9 h; Tmax [2, 4]: 0.43 ± 0.36 h; Tmax [2, 5]: 0.48 ± 0.33 h; half-life [2, 6]: 16.3 ± 5.46 h; half-life [2, 7]: 15.6 ± 9.06 h
							O=C(/C=C/c1ccc(O[C@@H]2O[C@H](CO)[C@@H](O)[C@H](O)[C@H]2O)cc1)c1ccc(O)cc1O [isoliquiritin]			distribution in rat plasma (quantifiable or not) [3]: quantifiable in most samples; AUC(0-t) [2, 4]: 1.58 ± 0.493 ng·h/mL; AUC(0-t) [2, 5]: 1.39 ± 0.36 ng·h/mL; AUC(0-inf) [2, 4]: 1.86 ± 0.632 ng·h/mL; AUC(0-inf) [2, 5]: 1.64 ± 0.474 ng·h/mL; Cmax [2, 4]: 0.85 ± 0.761 ng/mL; Cmax [2, 5]: 0.389 ± 0.167 ng/mL; MRT [2, 4]: 10.2 ± 4.65 h; MRT [2, 5]: 10.5 ± 3.13 h; Tmax [2, 4]: 0.43 ± 0.36 h; Tmax [2, 5]: 0.36 ± 0.31 h; half-life [2, 6]: 8.28 ± 3.4 h; half-life [2, 7]: 6.26 ± 0.976 h
2.53 ± 0.662 ng·h/mL	2.11 ± 1.73 ng·h/mL	2.22 ± 1.98 ng·h/mL	8.48 ± 1.07 h		3.9 ± 1.03 h	9.83 ± 4.37 h	O=C1C[C@@H](c2ccc(O)cc2)Oc2cc(O)ccc21 [liquiritigenin]	0.347 ± 0.276 ng/mL	2.81 ± 0.98 ng·h/mL	

SMILES	AUC0–t [1]	AUC(0-t) [2]	AUC(0-inf) [2]	MRT [2]	Tmax [2]	half-life ([2]; t1/2)	MRT [1]	Cmax [2]	AUC0–∞ [1]	also measured
Cc1cccc2c3c(ccc12)C1=C(C(=O)C3=O)[C@@H](C)CO1 [dihydrotanshinone I]	4.67 ± 2.23 ng·h/mL	4.99 ± 2.18 ng·h/mL	4.47 ± 0.864 ng·h/mL	8.22 ± 1.2 h	8 h	3.9 ± 0.858 h	14.8 ± 9.29 h	0.618 ± 0.25 ng/mL	5.98 ± 5.34 ng·h/mL	
C[C@H]1COC2=C1C(=O)C(=O)c1c2ccc2c1CCCC2(C)C [cryptotanshinone]	10.2 ± 2.21 ng·h/mL	8.77 ± 2.26 ng·h/mL	12 ± 5.01 ng·h/mL	19.3 ± 6.01 h		12.2 ± 5.2 h	25.6 ± 20.1 h	0.898 ± 0.29 ng/mL	16.4 ± 8.86 ng·h/mL	
C=C[C@H]1[C@H](O[C@@H]2O[C@H](CO)[C@@H](O)[C@H](O)[C@H]2O)OC=C2C(=O)OCC[C@H]21 [sweroside]	247 ± 58.0 ng·h/mL	210 ± 75.7 ng·h/mL	294 ± 94.2 ng·h/mL		1.58 ± 1.31 h			28.9 ± 14.3 ng/mL	281 ± 53.4 ng·h/mL	
